Measured values from patent US9096532B2, “Pyrazole inhibitors of COX-2 and sEH” (The Regents of the University of California, priority 2010, dated 2015).
Entries after “also recorded” stand apart in the source; their conditions may differ.

Experiments:
ovine COX-1 = biological target: T1, ovine COX-1 (Ovis aries, UniProt P05979); assay: Cyclooxygenase inhibition assay (COX Fluorescent Inhibitor Screening Assay Kit), COX-1; format: biochemical
T1 construct: purchased Cayman Chemical 700100
T1 sequence (P05979 25-600): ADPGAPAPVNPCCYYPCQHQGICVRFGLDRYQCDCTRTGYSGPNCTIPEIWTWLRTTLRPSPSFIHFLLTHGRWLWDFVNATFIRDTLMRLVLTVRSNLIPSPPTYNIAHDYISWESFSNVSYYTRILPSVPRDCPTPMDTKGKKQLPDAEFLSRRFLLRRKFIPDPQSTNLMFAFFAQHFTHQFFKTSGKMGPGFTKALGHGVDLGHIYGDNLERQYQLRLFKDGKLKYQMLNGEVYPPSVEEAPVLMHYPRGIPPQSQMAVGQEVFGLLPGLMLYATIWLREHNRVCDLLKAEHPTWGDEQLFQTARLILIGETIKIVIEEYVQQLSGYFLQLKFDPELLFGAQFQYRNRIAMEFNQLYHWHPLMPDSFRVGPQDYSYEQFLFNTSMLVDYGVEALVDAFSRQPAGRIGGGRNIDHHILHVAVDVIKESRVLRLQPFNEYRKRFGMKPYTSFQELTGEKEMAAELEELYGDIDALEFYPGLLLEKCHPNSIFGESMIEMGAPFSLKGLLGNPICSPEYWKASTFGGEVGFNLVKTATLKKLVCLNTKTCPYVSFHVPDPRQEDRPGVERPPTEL
Procedure: (§1) Stock solutions of test compounds are dissolved in a minimum volume of DMSO. 10 μl of various concentrations of the test compound solutions, e.g., [I]final between 0.01 and 100 μM, are added to a series of supplied reaction buffer solutions (150 μl, 100 mM Tris-HCl, pH 8.0) with either COX-1 or COX-2 (10 μl) enzyme in the presence of Heme (10 μl) and a fluorometric substrate (10 μl). The reactions are initiated by quickly adding 10 μl of arachidonic acid solution and then incubating the system for two minutes at room temperature. […] The intensity of this fluorescence is proportional to the amount of resorufin, which is proportional to the amount of PGG2 present in the well during the incubation. Percent inhibition is calculated by comparison from the 100% initial activity sample value (no inhibitor).
as §1, with “compounds were” for “compounds are”, “μM, were” for “μM, are”, “reactions were” for “reactions are”, “then incubated” for “then incubating the system”, “inhibition was” for “inhibition is”

HUVEC cells = assay: HUVEC endothelial tube formation assay; format: cell-based, human; conditions: treated for 4-6 hours, FIG. 12
Procedure: Endothelial tube formation assay was carried out using a slightly modified method described by Arnaoutova and Kleinman (Nat. Protocols 5, 628-635). Briefly, 96-well plates were coated with growth-factor reduced Matrigel (50 μL per well, BD Biosciences, San Jose, Calif.) at 37° C. for 30 min. HUVEC cells were seeded into the 96-well plates at 2×10^4 cells per well in 100 μL serum-free F-12K medium with or without test compounds and incubated for 6 h 37° C. in the incubator. Microscope image was recorded and analyzed by NIH Image J software.

LPS induced allodynia = assay: Von Frey mechanical nociceptive assay, LPS induced model of inflammatory pain; format: in vivo; conditions: male SD rats, 10 mg/kg s.c. 60 minutes before intraplantar LPS, tested until 6 hours post LPS
Procedure: In vivo anti-allodynic effects of the COX-2/sEH dual inhibitors provided herein was assayed. An LPS induced model of inflammatory pain was used to compare the pain reducing activity of the COX-2/sEH dual inhibitors to combination and individual therapies.
Rats weighing approximately 250-300 grams are brought to the testing apparatus and allowed to acclimate for 30 minutes. After 30 minutes the rats are tested with a von Frey aesthesiometer for their non-treated baseline withdrawal latency to mechanical stimulation. The von Frey apparatus is a raised metal mesh platform that has clear acrylic chambers to enclose rats but allow them to move freely. A rigid tip von Frey probe is used to probe the plantar surface of the rat hind paw though the mesh floor to elicit a withdrawal response. The measures recorded are grams of force applied to the hind paw required to elicit a withdrawal. The pretreatment baseline score is considered the pain-free baseline (BL) and is assigned 100% for further response calculations. […] The measures are then calculated as a percent of the pretreatment baseline score.

NS(=O)(=O)c1ccc(-n2nc(CCCNC(=O)Nc3ccc(C(F)(F)F)cc3)cc2-c2ccccc2)cc1 [Compound 21i, 4-(5-Phenyl-3-{3-[3-(4-trifluoromethyl-phenyl)-ureido]-propyl}-pyrazol-1-yl)-benzenesulfonamide]
IC50 (ovine COX-1): > 100 µM
inhibition at 100 µM (ovine COX-1; read-out: COX-1 (% inhibition)): 22.7%
HUVEC tube formation, in words (HUVEC cells): inhibits endothelial proliferation assay of HUVEC cells
Anti-allodynic effect, von Frey paw withdrawal, in words (LPS induced allodynia): better in vivo efficacy in a pain model in rats compared to celecoxib and t-AUCB combination therapy; also recorded: superior effect compared to the combination therapies; also recorded: superior anti-allodynic activity; also recorded: more efficient than the combination of celecoxib with t-AUCB
